How the values were obtained:
MEK1 and MEK2 proteins = experiment: Global proteome analysis of HT-29 cells; type: cell-based, human
Protocol: […] […] P values were calculated from the data of two technical replicates. (A) DMSO compared to CPD-031 treated samples; (B) CPD-034 compared to CPD-031 treated samples; (C) DMSO compared to CPD-034 treated samples.
Proteins outside the significance lines were labeled with pink or purple color (FDR=0.05, S0=1). P values were calculated from the data of two technical replicates.
Protein Extraction and Digestion. Cells with indicated treatments were harvested and lysed in lysis buffer (6 M guanidine hydrochloride, 100 mM Tris-HCl pH 8.0). Sonication (5 s on, 5 s off, 2×30 s) was performed to shear genome DNA. Lysate were centrifugated for 30 min at 3,500 g at 4° C. and the supernatant were transferred to a clean tube, diluted 50% with Milli-Q H2O, then precipitated by addition of cold acetone (four times the original volume), and placed at −20° C. overnight. Precipitated proteins were brought down at 20,000 g at 4° C. for 10 min, and washed with cold acetone after discarding the supernatant. The pellet was air-dried at RT for 5 min and solubilized with 50 mM Tris-HCl (PH 8.0), 8 M urea. Protein concentration was determined (BCA assay) and protein was reduced with 5 mM DTT (dithiothreitol), alkylated with 15 mM IAA (iodoacetamide) in the dark, then diluted with buffer 25 mM Tris (pH 8.0) and 1 mM CaCl2 (three times the original volume). The final urea concentration is 2 M. Trypsin was added into protein solution with 1:100 ratio (trypsin:protein), and digested 12-16 h or overnight at RT.
Mass Spectrometry Analysis. Peptides were cleaned up by C18 stage tips and the concentration was determined (Peptide assay, 23275, Thermo Fisher Scientific). The clean peptides were dissolved in 0.1% formic acid and analyzed on a Q-Exactive HF-X coupled with an Easy nanoLC 1200 (Thermo Fisher Scientific, San Jose, CA). 0.5 μg of peptides were loaded onto an Acclain PepMap RSLC C18 Column (250 mm×75 μm ID, C18, 2 μm, Thermo Fisher Scientific). […] A linear gradient of 5 to 30% buffer B over 110 min was executed at a 300 nl/min flow rate followed a ramp to 100% B in 5 min, and 15-min wash with 100% B, where buffer A was aqueous 0.1% formic acid, and buffer B was 80% acetonitrile and 0.1% formic acid.
LC-MS experiments were performed in a data-dependent mode with full MS (externally calibrated to a mass accuracy of <5 ppm and a resolution of 60,000 at m/z 200) followed by high energy collision-activated dissociation-MS/MS of the top 20 most intense ions with a resolution of 15,000 at m/z 200. High energy collision-activated dissociation-MS/MS was used to dissociate peptides at a normalized collision energy of 27 eV in the presence of nitrogen bath gas atoms. Dynamic exclusion was 30.0 seconds. Each sample was subjected to two technical LC-MS replicates.
MS Data Analysis. Mass spectra processing and peptide identification were performed on the Andromeda search engine in MaxQuant software (Version 1.6.0.16) against the human UniProt database (UP000005640). All searches were conducted with a defined modification of cysteine carbamidomethylation, with methionine oxidation and protein amino-terminal acetylation as dynamic modifications. Peptides were confidently identified using a target-decoy approach with a peptide false discovery rate (FDR) of 1% and a protein FDR of 1%. A minimum peptide length of 7 amino acids was required, maximally two missed cleavages were allowed, initial mass deviation for precursor ion was up to 7 ppm, and the maximum allowed mass deviation for fragment ions was 0.5 Da. Data processing and statistical analysis were performed on Perseus (Version 1.6.0.7). Protein quantitation was performed on duplicate runs, and a two-sample t-test statistics was used to report statistically significant expression fold-changes.

MEK1/2 [1] = experiment: Western blot of MEK1/2 protein levels in HT-29 cells; type: cell-based; conditions: for MEK1 and MEK2 protein levels, time-dependent: 0.1 μM or 0.3 μM, harvested at indicated time points
Protocol: Compound concentrations are 0.3 μM, 1 μM and 3 μM.
(§3) The indicated protein levels were determined by Western blots.
(§4) The sample was centrifuged at 12,000 g for 10 min at 4° C. to get supernatant as cell lysate. Protein concentrations were quantified using Pierce rapid gold BCA protein assay kit.

MEK1 = target: T1, MEK1 (Homo sapiens, UniProt Q02750); experiment: HotSpot kinase inhibition assay, MEK1; type: biochemical; conditions: MEK1 100 nM, ERK K52R substrate, 33P-ATP, normalized with DMSO
T1 construct: purchased Thermo Fisher Scientific PV3303
T1 sequence (Q02750 whole entry): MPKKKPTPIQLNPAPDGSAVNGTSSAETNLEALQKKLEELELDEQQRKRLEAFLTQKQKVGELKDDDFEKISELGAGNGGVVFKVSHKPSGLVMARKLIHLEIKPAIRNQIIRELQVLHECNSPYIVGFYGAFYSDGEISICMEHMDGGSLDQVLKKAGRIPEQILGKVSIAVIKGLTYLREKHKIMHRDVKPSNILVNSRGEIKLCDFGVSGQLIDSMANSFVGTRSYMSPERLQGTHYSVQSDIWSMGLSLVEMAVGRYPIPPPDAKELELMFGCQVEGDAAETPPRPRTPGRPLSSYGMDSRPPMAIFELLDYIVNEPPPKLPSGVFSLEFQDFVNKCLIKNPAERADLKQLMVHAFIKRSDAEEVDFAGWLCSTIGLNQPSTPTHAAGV

MEK2 = target: T2, MEK2 (Homo sapiens, UniProt P36507); experiment: HotSpot kinase inhibition assay, MEK2; type: biochemical; conditions: MEK2 150 nM, ERK K52R substrate, 33P-ATP, normalized with DMSO
T2 construct: purchased Thermo Fisher Scientific PV3615
T2 sequence (P36507 whole entry): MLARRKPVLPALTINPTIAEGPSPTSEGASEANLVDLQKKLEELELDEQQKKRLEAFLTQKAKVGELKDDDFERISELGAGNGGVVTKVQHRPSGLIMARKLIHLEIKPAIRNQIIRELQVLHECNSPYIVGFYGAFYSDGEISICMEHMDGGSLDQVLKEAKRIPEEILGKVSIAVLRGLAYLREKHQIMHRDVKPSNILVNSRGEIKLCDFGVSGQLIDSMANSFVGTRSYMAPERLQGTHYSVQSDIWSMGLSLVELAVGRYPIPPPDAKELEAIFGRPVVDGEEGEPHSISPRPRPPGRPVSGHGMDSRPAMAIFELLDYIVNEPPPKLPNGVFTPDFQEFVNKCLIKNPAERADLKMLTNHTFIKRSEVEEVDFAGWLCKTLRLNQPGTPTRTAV

MEK1/2 [2] = experiment: Western blot of MEK1/2 protein levels in SK-MEL-28 cells; conditions: SK-MEL-28 cells; for MEK1 and MEK2 protein levels, time-dependent: 0.1 μM or 0.3 μM, harvested at indicated time points
Protocol: as §3, §4

pMEK and pERK [3] = experiment: Western blot of MEK and ERK phosphorylation in SK-MEL-28 cells; conditions: SK-MEL-28 cells; for phosphorylation of MEK and ERK / pERK signaling, time-dependent: 0.1 μM or 0.3 μM, harvested at indicated time points
pMEK and pERK [4] = experiment: Western blot of MEK and ERK phosphorylation in HT-29 cells; type: cell-based; conditions: HT-29 cells; for phosphorylation of MEK and ERK / pERK signaling, time-dependent: 0.1 μM or 0.3 μM, harvested at indicated time points
SUDHL1 cells = experiment: WST-8 cell viability assay, SUDHL1; type: cell-based; conditions: WST-8, 3 d
Protocol: (§1) Cells (2000 cells per well) were seeded into 96-well microplates. After 20 h, cells were treated with 0.1% DMSO or indicated serial dilutions of compounds in duplicate or triplicate for 3 days. Cell viability was tested using MTT (M6494, Thermo Fisher Scientific) or WST-8 reagent (CK04, Dojindo). Briefly, 12 mM MTT was prepared in PBS or WST-8 reagent was warmed up to room temperature. 20 μL MTT or CCK-8 was then added to each well and the plates were kept in incubator at 37° C. for 3 h in the dark. For the WST-8 assay, signal was obtained after the incubation. For the MTT assay, cell medium was replaced with 200 μL of DMSO after the incubation, and then cell plates were kept at 37° C. for another 30 min. Absorbance signals for MTT and WST-8 were read at 540 nm and 450 nm respectively, with 690 nm as reference performed with Infinite F PLEX plate reader (TECAN, Morrisville, NC, USA). GI50 values were analyzed using GraphPad Prism 8 from the data of at least three independent experiments.

H3122 cells = experiment: WST-8 cell viability assay, H3122; type: cell-based; conditions: WST-8, 3 d
Protocol: as §1

HT-29 cells = experiment: WST-8 cell viability assay, HT-29; type: cell-based; conditions: WST-8 3 d serial dilutions, clonogenic assay 10 d
Protocol: (§2) Cells were fixed and stained by crystal violet.
as §1

SK-MEL-28 cells = experiment: WST-8 cell viability assay, SK-MEL-28; type: cell-based; conditions: WST-8 3 d serial dilutions
Protocol: as §2, §1

[5] = 8 h, 0.1 μM CPD-038 or CPD-052, 0.3 μM CPD-051 or CPD-097, versus 0.1% DMSO
[6] = serial dilution, 24 h, western blot

| Structure (SMILES) | MEK1 and MEK2 protein levels, time-dependent (MEK1/2 [2]) | phosphorylation of MEK and ERK / pERK signaling, time-dependent (pMEK and pERK [3]) | protein levels in the global proteomic study (MEK1 and MEK2 proteins; [5]) | phosphorylation of MEK and ERK / pERK signaling, time-dependent (pMEK and pERK [4]) | MEK1 and MEK2 protein levels, time-dependent (MEK1/2 [1]; HT-29 cells) | growth of cells (HT-29 cells) | growth of cells (SK-MEL-28 cells) | also measured |
| --- | --- | --- | --- | --- | --- | --- | --- | --- |
| Cc1ncsc1-c1ccc([C@H](C)NC(=O)C2CC(O)CN2C(=O)[C@@H](NC(=O)CCCCCCCCCCNCCCONC(=O)c2ccc(F)c(F)c2Nc2ccc(I)cc2F)C(C)(C)C)cc1 (stereo in doubt) [CPD-034, (2R,4S)-1-((S)-20-(tert-butyl)-1-(3,4-difluoro-2-((2-fluoro-4-iodophenyl)amino)phenyl)-1,18-dioxo-3-oxa-2,7,19-triazahenicosan-21-oyl)-4-hydroxy-N—((S)-1-(4-(4-methylthiazol-5-yl)phenyl)ethyl)pyrrolidine-2-carboxamide] |  |  |  |  |  |  |  | protein levels in the global proteomic study (MEK1 and MEK2 proteins; 10 h, 0.1 μM, versus 0.1% DMSO): did not significantly modulate; MEK1 and MEK2 protein levels (MEK1/2 [1]; HT-29 cells, 0.1, 0.3, or 1 μM, 24 h): not; MEK1 kinase activity (MEK1): inhibited; MEK2 kinase activity (MEK2): inhibited |
| Cc1ncsc1-c1ccc([C@H](C)NC(=O)[C@@H]2C[C@@H](O)CN2C(=O)[C@@H](NC(=O)CCCCCCCCCCCNCCCCONC(=O)c2ccc(F)c(F)c2Nc2ccc(I)cc2F)C(C)(C)C)cc1 [CPD-038, (2S,4R)-1-((S)-22-(tert-butyl)-1-(3,4-difluoro-2-((2-fluoro-4-iodophenyl)amino)phenyl)-1,20-dioxo-3-oxa-2,8,21-triazatricosan-23-oyl)-4-hydroxy-N—((S)-1-(4-(4-methylthiazol-5-yl)phenyl)ethyl)pyrrolidine-2-carboxamide] | degrade | inhibit | selectively degraded | inhibit | degrade |  |  | growth inhibition compared with AZ compound (SUDHL1 cells): more potent; growth inhibition compared with AZ compound (H3122 cells): more potent |
| O=C1CCC(N2C(=O)c3ccc(NCCOCCOCCOCCOCCOCCNCCCONC(=O)c4ccc(F)c(F)c4Nc4ccc(I)cc4F)cc3C2=O)C(=O)N1 (stereo not shown) [CPD-051, N-((1-((2-(2,6-dioxopiperidin-3-yl)-1,3-dioxoisoindolin-5-yl)amino)-3,6,9,12,15-pentaoxa-18-azahenicosan-21-yl)oxy)-3,4-difluoro-2-((2-fluoro-4-iodophenyl)amino)benzamide] | degrade | inhibit | selectively degraded | inhibit | degrade | significantly suppressed | significantly suppressed | MEK1 and MEK2 protein levels, concentration-dependent (MEK1/2 [2]; [6]): concentration-dependently reduced; phosphorylation of MEK and ERK proteins, concentration-dependent (pMEK and pERK [3]; [6]): inhibited; phosphorylation of MEK and ERK proteins, concentration-dependent (pMEK and pERK [4]; [6]): inhibited; MEK1 and MEK2 protein levels (MEK1/2 [1]; HT-29 cells, 24 h, 0.3 μM, 1 μM and 3 μM, western blot normalized with α-tubulin): significantly degraded; MEK1 and MEK2 protein levels, concentration-dependent (MEK1/2 [1]; HT-29 cells, serial dilution, 24 h, western blot): concentration-dependently reduced |
| Cc1ncsc1-c1ccc([C@H](C)NC(=O)[C@H]2C[C@H](O)CN2C(=O)[C@@H](NC(=O)CCCCCCCCCCCNCCCCONC(=O)c2ccc(F)c(F)c2Nc2ccc(I)cc2F)C(C)(C)C)cc1 [CPD-052, (2R,4S)-1-((S)-22-(tert-butyl)-1-(3,4-difluoro-2-((2-fluoro-4-iodophenyl)amino)phenyl)-1,20-dioxo-3-oxa-2,8,21-triazatricosan-23-oyl)-4-hydroxy-N-((S)-1-(4-(4-methylthiazol-5-yl)phenyl)ethyl)pyrrolidine-2-carboxamide] |  |  | did not significantly modulate |  |  | did not significantly suppress | did not significantly suppress |  |
| Cc1ncsc1-c1ccc([C@H](C)NC(=O)[C@H]2C[C@H](O)CN2C(=O)[C@@H](NC(=O)CCCCCCCCCCN(C)CCCONC(=O)c2ccc(F)c(F)c2Nc2ccc(I)cc2F)C(C)(C)C)cc1 [CPD-053, (2R,4S)-1-((S)-20-(tert-butyl)-1-(3,4-difluoro-2-((2-fluoro-4-iodophenyl)amino)phenyl)-7-methyl-1,18-dioxo-3-oxa-2,7,19-triazahenicosan-21-oyl)-4-hydroxy-N-((S)-1-(4-(4-methylthiazol-5-yl)phenyl)ethyl)pyrrolidine-2-carboxamide] |  |  |  |  |  | did not significantly suppress | did not significantly suppress |  |
| CN1C(=O)CCC(N2C(=O)c3ccc(NCCOCCOCCOCCOCCOCCNCCCONC(=O)c4ccc(F)c(F)c4Nc4ccc(I)cc4F)cc3C2=O)C1=O (stereo not shown) [CPD-097, 3,4-difluoro-2-((2-fluoro-4-iodophenyl)amino)-N-((1-((2-(1-methyl-2,6-dioxopiperidin-3-yl)-1,3-dioxoisoindolin-5-yl)amino)-3,6,9,12,15-pentaoxa-18-azahenicosan-21-yl)oxy)benzamide] |  |  | did not significantly modulate |  |  | did not significantly suppress | did not significantly suppress |  |

— patent US12103924B2, “Mitogen-activated protein kinase kinase (MEK) degradation compounds and methods of use” (Icahn School of Medicine at Mount Sinai, priority 2020, dated 2024)
